Source: patent US10881638B2, “Eye health composition” (Laboratoires Thea, priority 2015, dated 2021)

Legend:
[1] = test system: VEGFR receptors (VEGFR1 and VEGFR2), p-VEGFR2, VEGF; assay: Western blot of the VEGF pathway in differentiated (healthy) ARPE-19 cells; format: cell-based, human; conditions: differentiated ARPE-19, 24 h, 20 μM resveratrol (R20)
Protocol: The protocol used is the same as the one described in the example II-2, except for the cells studied: Cells studied: culture of differentiated ARPE-19 (human retinal pigment epithelium) cells. The undifferentiated cells are seeded in T75 flasks. The cells are maintained at 37° C., and in the presence of 5% CO2 in the medium DMEM/F12 (GIBCO; 31331), completed with 10% FBS (Lonza) and 15 mM HEPES (pH 7.4; GIBCO). When the cells reach confluence, the medium is replaced by DMEM/F12 (GIBCO; 31331), completed with 1% FBS (Lonza) and HEPES (15 mM pH 7.4; GIBCO). The media were changed 2 times per week for 8 weeks. Said cells can be equated with undamaged or healthy retinal cells.

VEGF [2] = conditions: in vitro, human retinal pigmentary epithelium cells (HRPE cells); cited from earlier work
[3] = test system: VEGFR receptors (VEGFR1 and VEGFR2), p-VEGFR2, VEGF; assay: Western blot of the VEGF pathway in undifferentiated (pathological) ARPE-19 cells; format: cell-based, human; conditions: undifferentiated ARPE-19, 24 h, 20 μM resveratrol (R20) or equivalent (A20)
Protocol: Cells studied: culture of undifferentiated ARPE-19 (ATCC® CRL-2302™) (human retinal pigment epithelium) cells.
The cells were maintained at 37° C., and in the presence of 5% CO2 in the medium DMEM/F12 (GIBCO; 31331), completed with 10% FBS (Lonza) and 15 mM HEPES (pH 7.4; GIBCO).
b) Incubation Between the Compositions (Formula A or B) and the Cells: 1, 5, 10 or 20 μM.
The 10 μM equivalent from formula B also corresponding to 0.115 mg/mL of formula B in DMEM/F12+1% FBS w/o phenol red.
The day prior to treatment, the medium was eliminated and replaced by DMEM/F12 without phenol red (GIBCO; 21041), completed with 1% FBS (Lonza) and 15 mM HEPES (pH 7.4; GIBCO).
After 24 h of stimulation, the media were eliminated, the cells were washed with PBS 1× then scrubbed in PBS 1×. The cells were centrifuged and the remainder was resuspended in the RIPA buffer along with a cocktail of protease inhibitors (Roche) and phosphatase inhibitors. The cells were lysed in ice for 30 minutes, then centrifuged. The protein concentration was determined by means of a protein quantification kit (Lowry kit, biorad). […] The membranes were again washed 3 times in 0.1% PBS-T and the signal was detected by ECL (Tebu bio). The images were recorded with the ChemiDoc imaging system and analyzed with Quantity One Software (Biorad) software.
The β-actin was also quantified in order to relativize the levels of expression.

VEGF [4] = conditions: wet form of AMD, repeated intravitreal injections; cited from earlier work

Oc1ccc(/C=C/c2cc(O)cc(O)c2)cc1 [resveratrol]
effect on VEGF receptors of healthy cells, resveratrol alone [1]: has no effect on healthy cells | overexpression of VEGF induced by cytokines (VEGF [2]): inhibiting in vitro the overexpression of VEGF | expression of VEGF receptors, resveratrol alone versus composition [3]: makes it possible to reduce the expression of VEGF receptors

pegaptanib
effect of the treatment (VEGF [4]): little effect

B1: ranibizumab: VEGF inhibitor used since 2007 for the wet form of AMD (antibody, chains of the INN, looked up, V domains shown)
VH: EVQLVESGGGLVQPGGSLRLSCAASGYDFTHYGMNWVRQAPGKGLEWVGWINTYTGEPTYAADFKRRFTFSLDTSKSTAYLQMNSLRAEDTAVYYCAKYPYYYGTSHWYFDVWGQGTLVTVSS
VL: DIQLTQSPSSLSASVGDRVTITCSASQDISNYLNWYQQKPGKAPKVLIYFTSSLHSGVPSRFSGSGSGTDFTLTISSLQPEDFATYYCQQYSTVPWTFGQGTKVEIK
modifications: Fab
unresponsive or no longer responsive to the treatment (VEGF [4]): about 30%
